Measurements published in US9156811B2 (priority 2008, dated 2015).

system: Trypanosome (T. brucei brucei); experiment: In-vitro antitrypanosomal efficacy assay (cell growth, resazurin); format: cell-based; details: T. brucei cell growth
Experimental: To column 12, 200 μl media was added to provide a no cells control. Plates were then incubated at 37° C. in an atmosphere of 5% CO2 for 69 hours, before the addition of 20 μl of 500 μM rezasurin solution, and a further incubation period of 4 hours. […] Concentration effect curves were fitted using non-linear regression using XLFit 4.2 and EC50 values determined.

Structure (SMILES) | ED50 (μM) T. brucei
Cc1cc([S+](=O)([O-])Nc2c(C)nn(C)c2C)c(Cl)cc1Cl [DDD60006] | >1 µM
Cc1nn(C)c(C)c1N[S+](=O)([O-])c1cc(C(F)(F)F)cc(C(F)(F)F)c1 [DDD61393] | >1 µM
CCc1ccc([S+](=O)([O-])Nc2c(C)nn(C)c2C)cc1 [DDD71231] | >1 µM
Cc1cc([S+](=O)([O-])Nc2c(C)nn(C)c2C)ccc1Br [DDD71235] | >1 µM
Cc1nn(C)c(C)c1N[S+](=O)([O-])c1c(Cl)cccc1Cl [DDD71239] | 23.2 µM
COc1cc(NC(C)=O)ccc1[S+](=O)([O-])Nc1c(C)nn(C)c1C [DDD71590] | >1 µM
Cc1nn(C)c(C)c1N[S+](=O)([O-])c1ccc(CNC(=O)c2ccc(Cl)cc2)s1 [DDD73224] | >1 µM
Cc1nn(C)c(C)c1N[S+](=O)([O-])c1ccc(C#N)cc1Cl [DDD73228] | >1 µM
Cc1nn(C)c(C)c1N[S+](=O)([O-])c1cc(Cl)cc(Cl)c1O [DDD73229] | >1 µM
Cc1nn(C)c(C)c1N[S+](=O)([O-])c1c(Cl)cc(Br)cc1Cl [DDD73234, 4-Bromo-2,6-dichloro-N-(1,3,5-trimethyl-1H-pyrazol-4-yl)-benzenesulfonamide] | 14.3 µM
Cc1nn(C)c(C)c1N[S+](=O)([O-])c1ccc(Cl)nc1 [DDD73235, 6-Chloro-pyridine-3-sulfonic acid (1,3,5-trimethyl-1H-pyrazol-4-yl)-amide] | >1 µM
Cc1nn(C)c(C)c1N[S+](=O)([O-])c1c(Cl)cc(-c2ccccc2OCC(C)C)cc1Cl [DDD73273] | >1 µM
COCc1ccccc1-c1cc(Cl)c([S+](=O)([O-])Nc2c(C)nn(C)c2C)c(Cl)c1 [DDD73274] | >1 µM
Cc1nn(C)c(C)c1N[S+](=O)([O-])c1ccc(NCCc2ccccc2)nc1 [DDD73319] | 8.4 µM
Cc1nn(C)c(C)c1N[S+](=O)([O-])c1c(Cl)cc(-c2ccc(OC(F)(F)F)cc2)cc1Cl [DDD73323] | >1 µM
Cc1nn(C)c(C)c1N(Cc1ccccc1)[S+](=O)([O-])c1c(Cl)cc(Br)cc1Cl [DDD85601] | >1 µM
Cc1nn(C)c(C)c1N[S+](=O)([O-])c1ccc(NCCN2CCN(C)CC2)nc1 [DDD85602, 6-[2-(4-Methyl-piperazin-1-yl)-ethylamino]-pyridine-3-sulfonic acid (1,3,5-trimethyl-1 H-pyrazol-4-yl)-amide] | 0.63 µM
C#CCN(c1c(C)nn(C)c1C)[S+](=O)([O-])c1c(Cl)cc(Br)cc1Cl [DDD85630] | >1 µM
CC#CCN(c1c(C)nn(C)c1C)[S+](=O)([O-])c1c(Cl)cc(Br)cc1Cl [DDD85631] | >1 µM
Cc1nn(C)c(C)c1N[S+](=O)([O-])c1c(Cl)cc(-c2ccc(CN(C)Cc3ccccc3)cc2)cc1Cl [DDD85632] | >1 µM
Cc1nn(C)c(C)c1N[S+](=O)([O-])c1ccc(NCCN2CCCCC2)nc1 [DDD85635] | 48.1 µM
CCN(c1c(C)nn(C)c1C)[S+](=O)([O-])c1c(Cl)cc(Br)cc1Cl [DDD85637] | 3.2 µM
C=CCN(c1c(C)nn(C)c1C)[S+](=O)([O-])c1c(Cl)cc(Br)cc1Cl [DDD85638] | >1 µM
CCN(CC)Cc1ccc(-c2cc(Cl)c([S+](=O)([O-])Nc3c(C)nn(C)c3C)c(Cl)c2)cc1 [DDD85639] | >1 µM
Cc1nn(C)c(C)c1N(CC1OCCO1)[S+](=O)([O-])c1c(Cl)cc(Br)cc1Cl [DDD85641] | 16.3 µM
Cc1ccc(SCc2ccc([S+](=O)([O-])Nc3c(C)nn(C)c3C)cc2)cc1 [DDD85642] | >1 µM
Cc1nn(C)c(C)c1N[S+](=O)([O-])c1c(Cl)cc(-c2ccc(CN3CCN(C)CC3)cc2)cc1Cl [DDD85644] | 2.1 µM

Structure (SMILES) | ED50 (μM) T. brucei
Cc1nn(C)c(C)c1N[S+](=O)([O-])c1c(Cl)cc(-c2ccc(N3CCNCC3)nc2)cc1Cl [DDD85645] | 0.23 µM
Cc1nn(C)c(C)c1N[S+](=O)([O-])c1ccc(Br)cc1Cl [DDD86208, 4-Bromo-2-chloro-N-(1,3,5-trimethyl-1H-pyrazol-4-yl)-benzenesulfonamide] | >1 µM
Cc1nn(C)c(C)c1N[S+](=O)([O-])c1c(Cl)cc(-c2ccnc(Cl)c2)cc1Cl [DDD86209, 2,6-Dichloro-4-(2-chloro-pyridin-4-yl)-N-(1,3,5-trimethyl-1H-pyrazol-4-yl)-benzenesulfonamide] | >1 µM
Cc1nn(C)c(C)c1N[S+](=O)([O-])c1c(Cl)cc(-c2ccnc(N3CCN(C)CC3)c2)cc1Cl [DDD86211, 2,6-Dichloro-4-[2-(4-methyl-piperazin-1-yl)-pyridin-4-yl]-N-(1,3,5-trimethyl-1H-pyrazol-4-yl)-benzenesulfonamide] | 0.19 µM
Cc1nn(C)c(C)c1N[S+](=O)([O-])c1ccc(-c2ccnc(N3CCNCC3)c2)cc1 [DDD86213, 4-(2-piperazin-1-yl-pyridin-4-yl)-N-(1,3,6-trimethyl-1H-pyrazol-4-yl)-benzenesulfonamide] | 0.003 µM
Cc1nn(C)c(C)c1N[S+](=O)([O-])c1ccc(NC2CCN(Cc3ccccc3)C2)nc1 (stereo not drawn) [DDD86294] | >1 µM
Cc1nn(C)c(C)c1N[S+](=O)([O-])c1ccc(NC2CCNC2)nc1 (stereo not drawn) [DDD86296] | >1 µM
Cc1nn(C)c(C)c1N[S+](=O)([O-])c1ccc(NCCCN2CCC(N(C)C)C2)nc1 (stereo not drawn) [DDD86300] | 1.73 µM
Cc1nn(C)c(C)c1N[S+](=O)([O-])c1ccc(NCCN2CCN(c3ccccc3)CC2)nc1 [DDD86301] | >1 µM
Cc1nn(C)c(C)c1N[S+](=O)([O-])c1ccc(NCCN2CCNCC2)nc1 [DDD86305] | >1 µM
Cc1nn(C)c(C)c1N[S+](=O)([O-])c1ccc(N2CCC(N(C)C)C2)nc1 (stereo not drawn) [DDD86306] | >1 µM
Cc1nn(C)c(C)c1N[S+](=O)([O-])c1ccc(N(C)CCO)nc1 [DDD86307] | >1 µM
Cc1nn(C)c(C)c1N[S+](=O)([O-])c1c(Cl)cc(-c2ccnc(NCCN(C)C)c2)cc1Cl [DDD86309, 2,6-Dichloro-4-[2-(2-dimethylamino-ethylamino)-pyridin-4-yl]-N-(1,3,5-trimethyl-1H-pyrazol-4-yl)-benzenesulfonamide] | >1 µM
CCN(CC)Cc1cccc(-c2ccc([S+](=O)([O-])Nc3c(C)nn(C)c3C)cc2)c1 [DDD86312, 3′-Diethylaminomethyl-biphenyl-4-sulfonic acid (1,3,5-trimethyl-1H-pyrazol-4-yl)-amide] | 0.07 µM
Cc1nn(C)c(C)c1N[S+](=O)([O-])c1ccc(-c2cccc(CN3CCOCC3)c2)cc1 [DDD86314, 3′-Morpholin-4-ylmethyl-biphenyl-4-sulfonic acid (1,3,5-trimethyl-1H-pyrazol-4-yl)-amide] | >1 µM
Cc1nn(C)c(C)c1N[S+](=O)([O-])c1ccc(-c2cccc(CN3CCN(C(=O)OC(C)(C)C)CC3)c2)cc1 [DDD86315, 4-[4′-(1,3,5-Trimethyl-1H-pyrazol-4-ylsulfamoyl)-biphenyl-3-ylmethyl]-piperazine-1-carboxylic acid tert-butyl ester] | >1 µM
Cc1nn(C)c(C)c1N[S+](=O)([O-])c1ccc(-c2cccc(CNCCN(C)C)c2)cc1 [DDD86316, 3′-[(2-Dimethylamino-ethylamino)-methyl]biphenyl-4-sulfonic acid (1,3,5-trimethyl-1H-pyrazol-4-yl)-amide] | 5.0 µM
Cc1nn(C)c(C)c1N[S+](=O)([O-])c1ccc(-c2cccc(CN3CCNCC3)c2)cc1 [DDD86317, 3′-piperazin-1-ylmethyl-biphenyl-4-sulfonic acid (1,3,5-trimethyl-1H-pyrazol-4-yl)-amide] | 0.02 µM
Cc1nn(C)c(C)c1N[S+](=O)([O-])c1ccc(-c2cccc(CN3CCCC3)c2)cc1 [DDD86318, 3′-Pyrrolidin-1-ylmethyl-biphenyl-4-sulfonic acid (1,3,5-trimethyl-1H-pyrazol-4-yl)-amide] | 0.21 µM
Cc1nn(C)c(CC(C)C)c1N[S+](=O)([O-])c1c(Cl)cc(-c2ccnc(N3CCNCC3)c2)cc1Cl [DDD86467, 2,6-Dichloro-N-(5-isobutyl-1,3-dimethyl-1H-pyrazol-4-yl)-4-(2-piperazin-1-yl-pyridin-4-yl)-benzenesulfonamide] | 0.003 µM
Cc1noc(C)c1N[S+](=O)([O-])c1c(Cl)cc(-c2ccnc(N3CCNCC3)c2)cc1Cl [DDD86468, 2,6-Dichloro-N-(3,5-dimethyl-isoxazol-4-yl)-4-(2-piperazin-1-yl-pyridin-4-yl)-benzenesulfonamide] | 0.20 µM
Cc1nn(C)c(C)c1N[S+](=O)([O-])c1c(Cl)cc(C#CCN2CCN(C)CC2)cc1Cl [DDD86469, 2,6-Dichloro-4-[3-(4-methyl-piperazin-1-yl)-prop-1-ynyl]-N-(1,3,5-trimethyl-1H-pyrazol-4-yl)-benzenesulfonamide] | 0.55 µM
Cc1nn(C)cc1N[S+](=O)([O-])c1ccc(-c2ccnc(N3CCNCC3)c2)cc1 [DDD86471, N-(1,3-Dimethyl-1H-pyrazol-4-yl)-4-(2-piperazin-1-yl-pyridin-4-yl)-benzenesulfonamide] | 0.009 µM
Cc1nn(C)c(C)c1N[S+](=O)([O-])c1ccc(NCCN2CCN(Cc3ccccc3)CC2)nc1 [DDD86472] | >1 µM
Cc1nn(C)c(C)c1N[S+](=O)([O-])c1ccc(N2CCC(NC3CCN(Cc4ccccc4)C3)CC2)nc1 (stereo not drawn) [DDD86473] | >1 µM
Cn1cc(N[S+](=O)([O-])c2ccc(-c3ccnc(N4CCNCC4)c3)cc2)cn1 [DDD86474, N-(1-Methyl-1H-pyrazol-4-yl)-4-(2-piperazin-1-yl-pyridin-4-yl)-benzenesulfonamide] | 0.65 µM
Cc1nn(C)cc1N[S+](=O)([O-])c1c(Cl)cc(-c2ccnc(N3CCNCC3)c2)cc1Cl [DDD86475, 2,6-Dichloro-N-(1,3-dimethyl-1H-pyrazol-4-yl)-4-(2-piperazin-1-yl-pyridin-4-yl)-benzenesulfonamide] | 0.003 µM
